Experimental data as given in patent US20240245696A1, “INHIBITORS OF DNA PK AND USES THEREOF” (BioVentures, LLC, priority 2017, published 2024).
Entries after “also recorded” stand apart in the source; their conditions may differ.

Columns and labels:
IL-2 = assay: Secreted IL-2 ELISA, Jurkat cells stimulated with PMA+PHA; type: cell-based, human; details: for level of IL-2: PMA+PHA 24 hour stimulation
Method: Cell Culture: Human peripheral blood mononuclear cells (PBMC,) and Jurkat cells were purchased from ATCC (PCS-800-011, Manassas, VA). Cells were maintained at 37° C. in a humidified atmosphere composed of 5% CO2. Jurkat cells were cultured in RPMI 1640 medium which was supplemented with 10% FCS and human PBMC was cultured in RPMI 1640 medium which was supplemented with 10% FCS and pen/strep. […] The NU7441 DNA-PKcs inhibitor was added at varying concentrations at the time of stimulation.
Detection of secreted IL-2: Secreted IL-2 was detected by Human IL-2 ELISA Kit from Thermo Scientific (Waltham, MA). The manufacturer's protocol was followed. […] Jurkat cells stimulated with the anti-CD28/CD3 dynabeads were done so according to the manufacturer's protocol at a 1:1 ratio for 24 hours prior to harvesting. After stimulation, supernatant samples of Jurkat cells or PBMCs (2 million cells/mL) were collected and diluted 10 times before the assay. IL-2 standards and samples (50 μL) and Biotinylated antibody reagents (50 μL) were added to each well and the plate was incubated for 3 hours at room temperature. The plate was washed 3 times and 100 μL of Streptavidin-HRP solution was added. After 30 minutes of incubation at room temperature, the plate was washed 3 times. TMB substrate (100 μL) was added and incubated for 30 minutes in the dark at room temperature. Stop solution was added and the absorbance of each well was read at 450 nm using the plate reader.

PBMC = assay: Cell viability assay (CELLTITER 96 AQUEOUS One) in PBMC; type: cell-based, human; details: various concentrations, 48 hours
Method: Cell Culture: Human peripheral blood mononuclear cells (PBMC,) and Jurkat cells were purchased from ATCC (PCS-800-011, Manassas, VA). Cells were maintained at 37° C. in a humidified atmosphere composed of 5% CO2. Jurkat cells were cultured in RPMI 1640 medium which was supplemented with 10% FCS and human PBMC was cultured in RPMI 1640 medium which was supplemented with 10% FCS and pen/strep. Both Jurkat cells and PBMC were stimulated with PHA (50 ng/mL) and PMA (1 μg/mL) for 24 hours prior to harvesting for IL-2 detection or 6 hours prior for western blot analysis. The NU7441 DNA-PKcs inhibitor was added at varying concentrations at the time of stimulation. Cell viability assay: Cell viability assay was performed using Promega CELLTITER 96 AQUEOUS One Solution Cell Proliferation Assay (Madison, WI) and following the manufacturer's protocol. Briefly, 100 μL of PBMC or Jurkat cells were plated in a 96-well plate and treated with various concentration of NU7441 for 48 hours. CELLTITER solution (20 μL/100 μL of cell suspension) was added to the cells and the plate was incubated for 3 hours at 37° C. and the absorbance at 490 nm was recorded using SynergyHTX (BioTek, Winooski, VT) plate reader.

O=c1cc(N2CCOCC2)oc2c(-c3cccc4c3sc3ccccc34)cccc12 [NU7441]
IL-2 secretion (IL-2; PMA (50 ng/ml)+PHA (1 μg/mL), 24 hours, concentration not stated (FIG. 1B)): significantly blocked IL-2 secretion
level of IL-2 (IL-2; 2.5 µM NU7441): significantly decreased
level of IL-2 (IL-2; 5 μM NU7441): further decreased
cellular viability of PBMC (PBMC): did not affect cellular viability; also recorded: does not reduce cell viability
